Results on one compound are retold here after patent US11332451B2, “RIP1 inhibitory compounds and methods for making and using the same” (priority 2018, dated 2022).

In this test the test system is TNF-alpha induced hypothermia. As to the kind of experiment: acute hypothermia mouse model (TNF-alpha/zVAD-FMK induced hypothermia). It counts as in vivo, mice. The conditions noted are these: dose of 5 mg/kg, oral gavage. As for the experimental part:
In this example, an acute hypothermia mouse model assay was used to evaluate the ability of compounds disclosed herein to inhibit TNF-alpha induced hypothermia.
Female C57BL/6 mice are randomly grouped and weighed on Day −1. On the day of the study (Day 0), mice are administered vehicle or test article by oral gavage. Fifteen minutes after oral administration of test agents, each mouse is administered an intraperitoneal (IP) injection of solution containing recombinant human tumor necrosis factor alpha (TNF-a, 25.0 μg) and zVAD-FMK (200 μg). Body temperature is measured at 0 hours (before IP injections) and every hour via rectal probe temperature measuring device. Three (3) hours after IP injections of TNF-α and zVAD/FMK, mice are euthanized by CO2 asphyxiation and blood is collected via cardiac puncture. Serum and plasma are harvested for determination of cytokine and compound levels, respectively. Separate groups of mice (satellite mice) are included for the determination of compound levels in plasma at the time of administration of TNFa/zVAD-FMK.
(S)-5-benzyl-N-(5-methyl-4-oxo-2,3,4,5-tetrahydrobenzo[b][1,4]oxazepin-3-yl)-4H-1,2,4-triazole-3-carboxamide (WO 2014/125444), having a structure as illustrated below, was used as a comparative compound and was examined using a similar protocol as described by WO 2014/125444.

With `CN1C(=O)[C@@H](NC(=O)c2n[nH]c(Cc3ccccc3)n2)COc2ccc(C#CC(C)(C)O)cc21` [Compound I-30, (S)-5-benzyl-N-(7-(3-hydroxy-3-methylbut-1-yn-1-yl)-5-methyl-4-oxo-2,3,4,5-tetrahydrobenzo[b][1,4]oxazepin-3-yl)-1H-1,2,4-triazole-3-carboxamide], the “inhibition of TNF-alpha induced hypothermia” value was “greater than 85%”.
